Test results taken from ChEMBL document CHEMBL5108087, “Synthesis and biological evaluation of paeoveitol D derivatives as new melatonin receptor agonists with antidepressant activities” (RSC Med Chem, 2022).

How the values were obtained:
[1] = target: T1, Melatonin receptor type 1B (Homo sapiens, UniProt P49286); experiment: Agonist activity at human MT2 receptor expressed in HEK293 cells by Fluo-8 based calcium assay; format: functional, cell-based
T1 sequence (P49286 whole entry): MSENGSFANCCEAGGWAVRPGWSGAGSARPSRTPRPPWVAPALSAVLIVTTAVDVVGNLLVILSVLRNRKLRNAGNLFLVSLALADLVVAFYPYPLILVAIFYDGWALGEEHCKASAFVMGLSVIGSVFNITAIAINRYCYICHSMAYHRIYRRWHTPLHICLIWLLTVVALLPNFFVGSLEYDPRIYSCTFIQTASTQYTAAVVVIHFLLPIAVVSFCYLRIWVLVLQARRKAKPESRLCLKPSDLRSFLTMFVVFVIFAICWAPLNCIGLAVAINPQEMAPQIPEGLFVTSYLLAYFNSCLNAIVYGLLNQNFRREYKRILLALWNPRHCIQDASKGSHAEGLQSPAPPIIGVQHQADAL

[2] = target: Melatonin receptor type 1A (Homo sapiens, UniProt P48039); experiment: Agonist activity at human MT1 receptor expressed in HEK293 cells by Fluo-8 based calcium assay; format: functional, cell-based
Sequence of Melatonin receptor type 1A (P48039 whole entry): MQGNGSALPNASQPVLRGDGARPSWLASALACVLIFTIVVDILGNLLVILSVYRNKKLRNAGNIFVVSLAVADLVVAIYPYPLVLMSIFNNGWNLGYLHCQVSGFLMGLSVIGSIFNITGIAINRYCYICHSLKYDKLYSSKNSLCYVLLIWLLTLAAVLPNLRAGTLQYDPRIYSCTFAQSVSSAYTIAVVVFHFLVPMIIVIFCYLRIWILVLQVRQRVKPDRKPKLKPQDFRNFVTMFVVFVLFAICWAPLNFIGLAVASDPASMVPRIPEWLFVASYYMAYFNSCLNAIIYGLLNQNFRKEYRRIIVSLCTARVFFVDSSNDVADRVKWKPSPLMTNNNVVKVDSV

Row | Compound | EC50 [1] [µM] | EC50 [2] [µM]
1 | COc1cc2c(CO)coc2cc1C | 520 | 700
2 | COc1cc2c(CN3CCNCC3)coc2cc1C | 380 | 460
